target: T1, glutaminase (GAC) (Homo sapiens, UniProt O94925); assay: Glutaminase (GAC) coupled endpoint enzymatic assay (glutamate dehydrogenase/diaphorase/resazurin, Ex544/Em590); type: biochemical; details: inhibition of glutaminase, tested in an assay of Example A or Example B; class symbols A-E
T1 sequence (O94925 55-598 isoform O94925-3 limits assumed): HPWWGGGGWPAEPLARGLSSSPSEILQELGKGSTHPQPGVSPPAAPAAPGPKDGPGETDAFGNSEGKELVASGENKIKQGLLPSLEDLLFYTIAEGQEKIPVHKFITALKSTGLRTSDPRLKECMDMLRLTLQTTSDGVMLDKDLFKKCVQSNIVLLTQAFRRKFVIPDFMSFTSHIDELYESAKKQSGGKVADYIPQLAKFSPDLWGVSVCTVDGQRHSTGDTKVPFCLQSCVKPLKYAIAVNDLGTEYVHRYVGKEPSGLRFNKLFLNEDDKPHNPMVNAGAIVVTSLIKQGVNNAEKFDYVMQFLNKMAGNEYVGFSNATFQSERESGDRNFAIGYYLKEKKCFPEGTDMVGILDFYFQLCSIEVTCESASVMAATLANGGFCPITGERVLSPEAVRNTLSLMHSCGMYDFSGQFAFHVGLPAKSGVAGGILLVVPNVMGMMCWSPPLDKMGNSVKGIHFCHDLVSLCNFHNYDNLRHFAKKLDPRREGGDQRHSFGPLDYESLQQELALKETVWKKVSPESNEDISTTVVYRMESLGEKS
From the text: In certain embodiments, exemplary compounds of Formula I include the compounds described in Table 1 and in the Examples. A compound described herein may be tested for its ability to inhibit glutaminase, e.g., by an assay as described in the Examples. For simplicity, the inhibition activity of these compounds is represented as an IC50 tested in an assay of Example A or Example B in Table 1. […] “N/A” refers to compounds wherein the IC50 is unavailable.
In this example, the enzymatic activity of glutaminase is measured through a coupled endpoint assay. Glutamine and phosphate are supplied to GAC at a concentration equal to Km and AC50, respectively, and GAC concentration is adjusted to give a linear reaction for 60 minutes. The glutamate produced is converted to 2-OG by a kinetic excess of glutamate dehydrogenase. This second step is configured for 2× Km for NAD, since excess NAD is inhibitory. However, a kinetic excess of the third coupling enzyme, diaphorase, recycles NAD from NADH to keep the NAD concentration constant during the timecourse of the assay. Diaphorase, also supplied in kinetic excess, oxidizes NADH produced by GDH back to NAD with the concomitant reduction of rezasurin to the highly fluorescent resorufin. Resorufin in measured after the assay is stopped with SDS by Ex544/Em590. A reduction in the signal indicates inhibition of some component of the coupled enzyme system. Prospective hits are counterscreened against GDH/diaphorase alone to remove hits to the coupling enzyme system in a second assay.
2. Buffers 2× Buffer (300 mM NaCl, 100 mM HEPES pH 8.5, 0.1% BSA, 0.5 mM EDTA, 100 mM sodium phosphate pH 8.5) 5× Substrate Mix (1× Buffer final concentration, with 13 mM glutamine, 100 μM resazurin, 50 μg/ml diaphorase) 1.2× Enzyme Mix (1× Buffer final concentration, with 0.875 μg/ml GAC, 1.56 mM NAD, 6.25 units/ml GDH) Stop Mix (6% SDS in ddH2O) Reaction Procedure 1. Add 1 μl compound in 100% DMSO 2. Add 40 μl of Enzyme Mix and incubate for 60 minute at room temperature 3. Add 10 μl of Substrate Mix to start reaction 4. Stop reaction with 25 μl of 6% SDS and read Ex544 Em 590

SMILES | IC50 [nM]
CN(C)c1cccnc1CC(=O)Nc1nnc([C@H]2CCC[C@H](c3nnc(NC(=O)Cc4ncccc4N(C)C)s3)C2)s1 (relative stereo) [Compound 115, N,N′-(5,5′-(trans-cyclohexane-1,3-diyl)bis(1,3,4-thiadiazole-5,2-diyl))bis(2-(3-(dimethylamino)pyridin-2-yl)acetamide)] | 500 to 1000
N#Cc1cccc(CC(=O)Nc2nnc([C@H]3CCC[C@H](c4nnc(NC(=O)Cc5cccc(C#N)c5)s4)C3)s2)c1 (single isomer, unassigned) [Compound 73] | < 100
COc1cccc(CC(=O)Nc2nnc([C@H]3CCC[C@H](c4nnc(NC(=O)Cc5cccc(OC)n5)s4)C3)s2)n1 (single isomer, unassigned) [Compound 84] | < 100
CC(C)C(=O)Nc1nnc([C@H]2CCC[C@H](c3nnc(NC(=O)C(C)C)s3)C2)s1 (single isomer, unassigned) [Compound 98] | 100 to 500
N#Cc1ccc(CC(=O)Nc2nnc([C@H]3CCC[C@H](c4nnc(NC(=O)Cc5ccc(C#N)cn5)s4)C3)s2)nc1 (single isomer, unassigned) [Compound 101] | < 100
O=C(Cc1ccccn1)Nc1nnc([C@@H]2CCC[C@@H](c3nnc(NC(=O)Cc4ccccn4)s3)C2)s1 [Compound 17, N,N′-(5,5′-((1R,3R)-cyclohexane-1,3-diyl)bis(1,3,4-thiadiazole-5,2-diyl))bis(2-(pyridin-2-yl)acetamide)] | 1000 to 2000
O=C(Cc1ncccn1)Nc1nnc([C@H]2CCC[C@H](c3nnc(NC(=O)Cc4ncccn4)s3)C2)s1 [Compound 27, N,N′-(5,5′-((1S,3S)-cyclohexane-1,3-diyl)bis(1,3,4-thiadiazole-5,2-diyl))bis(2-(pyrimidin-2-yl)acetamide)] | < 100
Cc1cc(CC(=O)Nc2nnc([C@H]3CCC[C@H](c4nnc(NC(=O)Cc5cc(C)no5)s4)C3)s2)on1 [Compound 30, N,N′-(5,5′-((1S,3S)-cyclohexane-1,3-diyl)bis(1,3,4-thiadiazole-5,2-diyl))bis(2-(3-methylisoxazol-5-yl)acetamide)] | < 100
CN(C)c1ccc(CC(=O)Nc2nnc([C@H]3CCC[C@H](c4nnc(NC(=O)Cc5ccc(N(C)C)cc5)s4)C3)s2)cc1 [Compound 31, N,N′-(5,5′-((1S,3S)-cyclohexane-1,3-diyl)bis(1,3,4-thiadiazole-5,2-diyl))bis(2-(4-(dimethylamino)phenyl)acetamide)] | < 100
O=C(Cc1cc2ccccc2[nH]1)Nc1nnc([C@H]2CCC[C@H](c3nnc(NC(=O)Cc4cc5ccccc5[nH]4)s3)C2)s1 [Compound 34] | 100 to 500
CN(C)c1cccc(CC(=O)Nc2nnc([C@H]3CCC[C@H](c4nnc(NC(=O)Cc5cccc(N(C)C)c5)s4)C3)s2)c1 [Compound 35, N,N′-(5,5′-((1S,3S)-cyclohexane-1,3-diyl)bis(1,3,4-thiadiazole-5,2-diyl))bis(2-(3-(dimethylamino)phenyl)acetamide)] | < 100
CCCC(=O)Nc1nnc([C@H]2CCC[C@H](c3nnc(NC(=O)CCC)s3)C2)s1 [Compound 37, N,N′-(5,5′-((1S,3S)-cyclohexane-1,3-diyl)bis(1,3,4-thiadiazole-5,2-diyl))dibutyramide] | 100 to 500
CC(=O)Nc1nnc([C@H]2CCC[C@H](c3nnc(NC(C)=O)s3)C2)s1 [Compound 41] | 100 to 500
O=C(/C=C/c1ccccn1)Nc1nnc([C@H]2CCC[C@H](c3nnc(NC(=O)/C=C/c4ccccn4)s3)C2)s1 [Compound 45, (2E,2′E)-N,N′-(5,5′-((1S,3S)-cyclohexane-1,3-diyl)bis(1,3,4-thiadiazole-5,2-diyl))bis(3-(pyridin-2-yl)acrylamide)] | 100 to 500
CSCCC(=O)Nc1nnc([C@H]2CCC[C@H](c3nnc(NC(=O)CCSC)s3)C2)s1 [Compound 46, N,N′-(5,5′-((1S,3S)-cyclohexane-1,3-diyl)bis(1,3,4-thiadiazole-5,2-diyl))bis(3-(methylthio)propanamide)] | 100 to 500

The next lines start with the values.

IC50 [nM] | SMILES
< 100 | O=C(Cc1cnccn1)Nc1nnc([C@H]2CCC[C@H](c3nnc(NC(=O)Cc4cnccn4)s3)C2)s1 (relative stereo) [Compound 76]
< 100 | N#Cc1cccnc1CC(=O)Nc1nnc([C@H]2CCC[C@H](c3nnc(NC(=O)Cc4ncccc4C#N)s3)C2)s1 (relative stereo) [Compound 113, N,N′-(5,5′-(trans-cyclohexane-1,3-diyl)bis(1,3,4-thiadiazole-5,2-diyl))bis(2-(3-cyanopyridin-2-yl)acetamide)]
< 100 | O=C(Cc1ccccn1)Nc1nnc([C@H]2CCC[C@H](c3nnc(NC(=O)Cc4ccccn4)s3)C2)s1 (single isomer, unassigned) [Compound 14]
< 100 | COc1ccccc1CC(=O)Nc1nnc([C@H]2CCC[C@H](c3nnc(NC(=O)Cc4ccccc4OC)s3)C2)s1 (single isomer, unassigned) [Compound 70]
< 100 | COc1cccc(CC(=O)Nc2nnc([C@H]3CCC[C@H](c4nnc(NC(=O)Cc5cccc(OC)c5)s4)C3)s2)c1 (single isomer, unassigned) [Compound 71]
100 to 500 | CC(=O)Nc1nnc([C@H]2CCC[C@H](c3nnc(NC(C)=O)s3)C2)s1 (single isomer, unassigned) [Compound 99]
< 100 | CN(C)c1cccc(CC(=O)Nc2nnc([C@H]3CCC[C@H](c4nnc(NC(=O)Cc5cccc(N(C)C)n5)s4)C3)s2)n1 (single isomer, unassigned) [Compound 105]
< 100 | CC(=O)Nc1ccc(CC(=O)Nc2nnc([C@H]3CCC[C@H](c4nnc(NC(=O)Cc5ccc(NC(C)=O)cc5)s4)C3)s2)cc1 (single isomer, unassigned) [Compound 106]
< 100 | COc1ccccc1CC(=O)Nc1nnc([C@@H]2CC[C@@H](c3nnc(NC(=O)Cc4ccccc4OC)s3)C2)s1 (stereo in doubt) [Compound 291, N,N′-(5,5′-((1S,3S)-cyclopentane-1,3-diyl)bis(1,3,4-thiadiazole-5,2-diyl))bis(2-(2-methoxyphenyl)acetamide)]
< 100 | O=C(Cc1ccc2c(c1)OCO2)Nc1nnc([C@H]2CCC[C@H](c3nnc(NC(=O)Cc4ccc5c(c4)OCO5)s3)C2)s1 [Cmpd 86]
500 to 1000 | O=C(Cc1ccccn1)Nc1nnc(CC2CCC(Cc3nnc(NC(=O)Cc4ccccn4)s3)CC2)s1 [Compound 2, N,N′-(5,5′-((1R,4R)-cyclohexane-1,4-diylbis(methylene)bis(1,3,4-thiadiazole-5,2-diyl))bis(2-(pyridin-2-yl)acetamide)]
< 100 | O=C(Cc1cccnc1)Nc1nnc([C@H]2CCC[C@H](c3nnc(NC(=O)Cc4cccnc4)s3)C2)s1 [Compound 28, N,N′-(5,5′-((1S,3S)-cyclohexane-1,3-diyl)bis(1,3,4-thiadiazole-5,2-diyl))bis(2-(pyridin-3-yl)acetamide)]
< 100 | O=C(Cc1ccncc1)Nc1nnc([C@H]2CCC[C@H](c3nnc(NC(=O)Cc4ccncc4)s3)C2)s1 [Compound 29, N,N′-(5,5′-((1S,3S)-cyclohexane-1,3-diyl)bis(1,3,4-thiadiazole-5,2-diyl))bis(2-(pyridin-4-yl)acetamide)]
1000 to 2000 | O=C(Nc1nnc([C@H]2CCC[C@H](c3nnc(NC(=O)c4ccccc4)s3)C2)s1)c1ccccc1 [Compound 39, N,N′-(5,5′-((1S,3S)-cyclohexane-1,3-diyl)bis(1,3,4-thiadiazole-5,2-diyl))dibenzamide]
100 to 500 | CCC(=O)Nc1nnc([C@H]2CCC[C@H](c3nnc(NC(=O)CC)s3)C2)s1 [Compound 40, N,N′-(5,5′-((1S,3S)-cyclohexane-1,3-diyl)bis(1,3,4-thiadiazole-5,2-diyl))dipropionamide]
100 to 500 | O=C(Cc1cccc(Cl)c1)Nc1nnc([C@H]2CCC[C@H](c3nnc(NC(=O)Cc4cccc(Cl)c4)s3)C2)s1 [Compound 43, N,N′-(5,5′-((1S,3S)-cyclohexane-1,3-diyl)bis(1,3,4-thiadiazole-5,2-diyl))bis(2-(3-chlorophenyl)acetamide)]
